Literature values in patent US20260102351A1, “LYOPHILIZED FORMULATION OF CROFELEMER AND METHODS OF TREATMENT USING THE SAME” (priority 2022, published 2026).

Conditions: human, in vivo

Crofelemer
absorption from the GI tract: little or no absorption
systemic bioavailability in humans: virtually no systemic bioavailability
tolerability: well tolerated
